Converted amounts (≈) assume the structure as drawn.
Assays:
Shigella flexneri [1] = test: Antibacterial activity against Shigella flexneri MTCC 1457 assessed as inhibition of visual growth after 24 hrs; assay type: functional; conditions: MTCC 1457, 24 h
Klebsiella aerogenes [2] = test: Antibacterial activity against Enterobacter aerogenes MTCC 111 assessed as zone of inhibition at 1 mg/disc after 24 hrs by disc diffusion method; assay type: functional
Micrococcus luteus [3] = test: Antibacterial activity against Micrococcus luteus MTCC 106 assessed as zone of inhibition at 1 mg/disc after 24 hrs by disc diffusion method; assay type: functional
Salmonella typhimurium [4] = test: Antibacterial activity against Salmonella typhimurium MTCC 1251 assessed as inhibition of visual growth after 24 hrs; assay type: functional, Salmonella enterica subsp. enterica serovar Typhimurium; conditions: Salmonella enterica, MTCC 1251, 24 h
[5] = test system: Staphylococcus epidermidis; test: Antibacterial activity against Staphylococcus epidermidis MTCC 3615 assessed as inhibition of visual growth after 24 hrs; assay type: functional; conditions: MTCC 3615, 24 h
Klebsiella aerogenes [6] = test: Antibacterial activity against Enterobacter aerogenes MTCC 111 assessed as inhibition of visual growth after 24 hrs; assay type: functional; conditions: MTCC 111, 24 h
[7] = test system: Staphylococcus epidermidis; test: Antibacterial activity against Staphylococcus epidermidis MTCC 3615 assessed as zone of inhibition at 1 mg/disc after 24 hrs by disc diffusion method; assay type: functional
Staphylococcus aureus [8] = test: Antibacterial activity against Staphylococcus aureus MTCC 96 assessed as zone of inhibition at 1 mg/disc after 24 hrs by disc diffusion method; assay type: functional
Proteus vulgaris [9] = test: Antibacterial activity against Proteus vulgaris MTCC 1771 assessed as zone of inhibition at 1 mg/disc after 24 hrs by disc diffusion method; assay type: functional
Salmonella typhimurium [10] = test: Antibacterial activity against Salmonella typhimurium MTCC 1251 assessed as zone of inhibition at 1 mg/disc after 24 hrs by disc diffusion method; assay type: functional, Salmonella enterica subsp. enterica serovar Typhimurium
Staphylococcus aureus [11] = test: Antibacterial activity against Staphylococcus aureus MTCC 96 assessed as inhibition of visual growth after 24 hrs; assay type: functional; conditions: MTCC 96, 24 h
Staphylococcus aureus [12] = test: Antibacterial activity against methicillin-resistant Staphylococcus aureus assessed as inhibition of visual growth after 24 hrs; assay type: functional
Malassezia pachydermatis [13] = test: Antifungal activity against Malassezia pachydermatis assessed as zone of inhibition at 1 mg/disc after 48 hrs by disc diffusion method; assay type: functional
Candida albicans [14] = test: Antifungal activity against Candida albicans MTCC 227 assessed as zone of inhibition at 1 mg/disc after 48 hrs by disc diffusion method; assay type: functional
Klebsiella pneumoniae [15] = test: Antibacterial activity against Klebsiella pneumoniae MTCC 109 assessed as inhibition of visual growth after 24 hrs; assay type: functional; conditions: MTCC 109, 24 h
Candida albicans [16] = test: Antifungal activity against Candida albicans MTCC 227 assessed as inhibition of visual growth after 48 to 72 hrs; assay type: functional
Staphylococcus aureus [17] = test: Antibacterial activity against methicillin-resistant Staphylococcus aureus assessed as zone of inhibition at 1 mg/disc after 24 hrs by disc diffusion method; assay type: functional
Shigella flexneri [18] = test: Antibacterial activity against Shigella flexneri MTCC 1457 assessed as zone of inhibition at 1 mg/disc after 24 hrs by disc diffusion method; assay type: functional
Klebsiella pneumoniae [19] = test: Antibacterial activity against Klebsiella pneumoniae MTCC 109 assessed as zone of inhibition at 1 mg/disc after 24 hrs by disc diffusion method; assay type: functional
Proteus vulgaris [20] = test: Antibacterial activity against Proteus vulgaris MTCC 1771 assessed as inhibition of visual growth after 24 hrs; assay type: functional; conditions: MTCC 1771, 24 h
Micrococcus luteus [21] = test: Antibacterial activity against Micrococcus luteus MTCC 106 assessed as inhibition of visual growth after 24 hrs; assay type: functional; conditions: MTCC 106, 24 h
Malassezia pachydermatis [22] = test: Antifungal activity against Malassezia pachydermatis assessed as inhibition of visual growth after 48 to 72 hrs; assay type: functional

## C=CCN1C(=O)[C@]2(c3ccccc31)[C@H](c1cn(-c3ccccc3)nc1-c1ccccc1)[C@@](C#N)(C(=O)c1c[nH]c3ccccc13)C1CSCN12 (stereo partly specified)
Shigella flexneri [1]
  MIC: 500 µg/mL (≈ 743 µM)
Klebsiella aerogenes [2]
  inhibition zone (IZ): 9 mm
Micrococcus luteus [3]
  inhibition zone (IZ): 11 mm
Salmonella typhimurium [4]
  MIC: 250 µg/mL (≈ 372 µM)
[5]
  MIC: 125 µg/mL (≈ 186 µM)
Klebsiella aerogenes [6]
  MIC: 250 µg/mL (≈ 372 µM)
[7]
  inhibition zone (IZ): 11 mm
Staphylococcus aureus [8]
  inhibition zone (IZ): 12 mm
Proteus vulgaris [9]
  inhibition zone (IZ): 10 mm
Salmonella typhimurium [10]
  inhibition zone (IZ): 10 mm
Staphylococcus aureus [11]
  MIC: 250 µg/mL (≈ 372 µM)
Staphylococcus aureus [12]
  MIC: 500 µg/mL (≈ 743 µM)
Malassezia pachydermatis [13]
  inhibition zone (IZ): 10 mm
Candida albicans [14]
  inhibition zone (IZ): 12 mm
Klebsiella pneumoniae [15]
  MIC: 500 µg/mL (≈ 743 µM)
Candida albicans [16]
  MIC: 250 µg/mL (≈ 372 µM)
Staphylococcus aureus [17]
  inhibition zone (IZ): 9 mm
Shigella flexneri [18]
  inhibition zone (IZ): 9 mm
Klebsiella pneumoniae [19]
  inhibition zone (IZ): 9 mm
Proteus vulgaris [20]
  MIC: 500 µg/mL (≈ 743 µM)
Micrococcus luteus [21]
  MIC: 500 µg/mL (≈ 743 µM)

## CN1C[C@](C#N)(C(=O)c2c[nH]c3ccccc23)[C@@H](c2cn(-c3ccccc3)nc2-c2ccccc2)[C@@]12C(=O)N(Cc1ccccc1)c1ccccc12
Klebsiella aerogenes [2]
  inhibition zone (IZ): 10 mm
Malassezia pachydermatis [22]
  MIC: 500 µg/mL (≈ 737 µM)
Micrococcus luteus [3]
  inhibition zone (IZ): 9 mm
[5]
  MIC: 500 µg/mL (≈ 737 µM)
Klebsiella aerogenes [6]
  MIC: 500 µg/mL (≈ 737 µM)
[7]
  inhibition zone (IZ): 8 mm
Staphylococcus aureus [8]
  inhibition zone (IZ): 9 mm
Proteus vulgaris [9]
  inhibition zone (IZ): 10 mm
Staphylococcus aureus [11]
  MIC: 500 µg/mL (≈ 737 µM)
Staphylococcus aureus [12]
  MIC: 500 µg/mL (≈ 737 µM)
Malassezia pachydermatis [13]
  inhibition zone (IZ): 9 mm
Candida albicans [14]
  inhibition zone (IZ): 8 mm
Klebsiella pneumoniae [15]
  MIC: 250 µg/mL (≈ 368 µM)
Candida albicans [16]
  MIC: 500 µg/mL (≈ 737 µM)
Staphylococcus aureus [17]
  inhibition zone (IZ): 8 mm
Klebsiella pneumoniae [19]
  inhibition zone (IZ): 11 mm
Proteus vulgaris [20]
  MIC: 250 µg/mL (≈ 368 µM)
Micrococcus luteus [21]
  MIC: 500 µg/mL (≈ 737 µM)

## CCCCN1C(=O)[C@]2(c3ccccc31)[C@H](c1cn(-c3ccccc3)nc1-c1ccccc1)[C@@](C#N)(C(=O)c1c[nH]c3ccccc13)C1CSCN12 (stereo partly specified)
Shigella flexneri [1]
  MIC: 500 µg/mL (≈ 726 µM)
Klebsiella aerogenes [2]
  inhibition zone (IZ): 9 mm
Malassezia pachydermatis [22]
  MIC: 125 µg/mL (≈ 181 µM)
Micrococcus luteus [3]
  inhibition zone (IZ): 10 mm
Salmonella typhimurium [4]
  MIC: 250 µg/mL (≈ 363 µM)
[5]
  MIC: 250 µg/mL (≈ 363 µM)
Klebsiella aerogenes [6]
  MIC: 500 µg/mL (≈ 726 µM)
[7]
  inhibition zone (IZ): 10 mm
Staphylococcus aureus [8]
  inhibition zone (IZ): 8 mm
Salmonella typhimurium [10]
  inhibition zone (IZ): 9 mm
Staphylococcus aureus [11]
  MIC: 250 µg/mL (≈ 363 µM)
Staphylococcus aureus [12]
  MIC: 500 µg/mL (≈ 726 µM)
Klebsiella pneumoniae [15]
  MIC: 500 µg/mL (≈ 726 µM)
Candida albicans [16]
  MIC: 125 µg/mL (≈ 181 µM)
Klebsiella pneumoniae [19]
  inhibition zone (IZ): 9 mm
Proteus vulgaris [20]
  MIC: 500 µg/mL (≈ 726 µM)
Micrococcus luteus [21]
  MIC: 250 µg/mL (≈ 363 µM)

## CN1C(=O)[C@]2(c3ccccc31)[C@H](c1cn(-c3ccccc3)nc1-c1ccccc1)[C@@](C#N)(C(=O)c1c[nH]c3ccccc13)C1CSCN12 (stereo partly specified)
Salmonella typhimurium [4]
  MIC: 500 µg/mL (≈ 773 µM)
[5]
  MIC: 125 µg/mL (≈ 193 µM)
Klebsiella aerogenes [6]
  MIC: 500 µg/mL (≈ 773 µM)
Staphylococcus aureus [11]
  MIC: 500 µg/mL (≈ 773 µM)
Klebsiella pneumoniae [15]
  MIC: 500 µg/mL (≈ 773 µM)
Proteus vulgaris [20]
  MIC: 500 µg/mL (≈ 773 µM)
Micrococcus luteus [21]
  MIC: 250 µg/mL (≈ 387 µM)

## C=CCN1C(=O)[C@]2(c3ccccc31)[C@H](c1cn(-c3ccccc3)nc1-c1ccccc1)[C@@](C#N)(C(=O)c1c[nH]c3ccccc13)C1CCCN12 (stereo partly specified)
Shigella flexneri [1]
  MIC: 250 µg/mL (≈ 382 µM)
Malassezia pachydermatis [22]
  MIC: 500 µg/mL (≈ 764 µM)
Salmonella typhimurium [4]
  MIC: 500 µg/mL (≈ 764 µM)
[5]
  MIC: 125 µg/mL (≈ 191 µM)
Klebsiella aerogenes [6]
  MIC: 250 µg/mL (≈ 382 µM)
Proteus vulgaris [9]
  inhibition zone (IZ): 10 mm
Salmonella typhimurium [10]
  inhibition zone (IZ): 10 mm
Staphylococcus aureus [11]
  MIC: 125 µg/mL (≈ 191 µM)
Staphylococcus aureus [12]
  MIC: 250 µg/mL (≈ 382 µM)
Klebsiella pneumoniae [15]
  MIC: 500 µg/mL (≈ 764 µM)
Candida albicans [16]
  MIC: 250 µg/mL (≈ 382 µM)
Klebsiella pneumoniae [19]
  inhibition zone (IZ): 9 mm
Proteus vulgaris [20]
  MIC: 250 µg/mL (≈ 382 µM)
Micrococcus luteus [21]
  MIC: 250 µg/mL (≈ 382 µM)

## N#C[C@]1(C(=O)c2c[nH]c3ccccc23)C2CCCN2[C@]2(C(=O)Nc3ccc(Cl)cc32)[C@@H]1c1cn(-c2ccccc2)nc1-c1ccccc1 (stereo partly specified)
Klebsiella aerogenes [2]
  inhibition zone (IZ): 8 mm
Micrococcus luteus [3]
  inhibition zone (IZ): 9 mm
[7]
  inhibition zone (IZ): 8 mm
Staphylococcus aureus [8]
  inhibition zone (IZ): 9 mm
Proteus vulgaris [9]
  inhibition zone (IZ): 10 mm
Salmonella typhimurium [10]
  inhibition zone (IZ): 8 mm
Malassezia pachydermatis [13]
  inhibition zone (IZ): 11 mm
Candida albicans [14]
  inhibition zone (IZ): 13 mm
Staphylococcus aureus [17]
  inhibition zone (IZ): 8 mm
Shigella flexneri [18]
  inhibition zone (IZ): 10 mm
Klebsiella pneumoniae [19]
  inhibition zone (IZ): 9 mm

## C#CCN1C(=O)[C@]2(c3ccccc31)[C@H](c1cn(-c3ccccc3)nc1-c1ccccc1)[C@@](C#N)(C(=O)c1c[nH]c3ccccc13)CN2C
Klebsiella aerogenes [2]
  inhibition zone (IZ): 10 mm
Malassezia pachydermatis [22]
  MIC: 500 µg/mL (≈ 798 µM)
Micrococcus luteus [3]
  inhibition zone (IZ): 8 mm
[5]
  MIC: 250 µg/mL (≈ 399 µM)
Klebsiella aerogenes [6]
  MIC: 250 µg/mL (≈ 399 µM)
[7]
  inhibition zone (IZ): 10 mm
Staphylococcus aureus [8]
  inhibition zone (IZ): 9 mm
Proteus vulgaris [9]
  inhibition zone (IZ): 8 mm
Staphylococcus aureus [11]
  MIC: 500 µg/mL (≈ 798 µM)
Staphylococcus aureus [12]
  MIC: 500 µg/mL (≈ 798 µM)
Malassezia pachydermatis [13]
  inhibition zone (IZ): 8 mm
Candida albicans [14]
  inhibition zone (IZ): 10 mm
Klebsiella pneumoniae [15]
  MIC: 250 µg/mL (≈ 399 µM)
Candida albicans [16]
  MIC: 125 µg/mL (≈ 199 µM)
Staphylococcus aureus [17]
  inhibition zone (IZ): 8 mm
Klebsiella pneumoniae [19]
  inhibition zone (IZ): 10 mm
Proteus vulgaris [20]
  MIC: 500 µg/mL (≈ 798 µM)
Micrococcus luteus [21]
  MIC: 500 µg/mL (≈ 798 µM)
